Assay results: patent publication US20230027066A1 (Urovant Sciences GmbH, priority 2019, published 2023)

Key:
Type in all cases: in vivo, human
[1] = ABPM study, in-clinic vital signs; details: SAF; for In-clinic SBP change from baseline ≥15, subjects / In-clinic SBP change from baseline ≥5, subjects / In-clinic SBP change from baseline ≥10, subjects: Baseline to End of Treatment; for In-clinic vital signs change from baseline ≥5, subjects / In-clinic vital signs change from baseline ≥10, subjects / In-clinic vital signs change from baseline ≥15, subjects: parameter not given (Table 111)
Method: (§1) Safety was evaluated by assessment of clinical laboratory tests, physical examinations, and vital signs measurements from office visits at various time points during the study, and by the documentation of AEs.
Tables 106, 107, and 108 show the changes to in-clinic measurements of systolic blood pressure, diastolic blood pressure, and heart rate over the treatment period.
For subjects with a body weight of at least about 65.4 kg, there was no difference between treatment and placebo in the number of subjects with a ≥5, ≥10, or ≥15 mm Hg increase in systolic blood pressure. The same was true for subjects over the age of 66.

[2] = ABPM study, adverse events; details: 75 mg, 28 days
Method: as §1
Safety Set (SAF): All subjects who received at least one dose of double-blind study treatment were included in the SAF. Subjects were included in the treatment group corresponding to the Study Treatment that was actually received. This was the population used to summarize safety analyses collected during clinic visits and correspondence with site staff; summarization of baseline/demographic characteristics also presented for the SAF.

[3] = QTc study comparison mirabegron and vibegron, BP and HR in healthy subjects; details: for HR change at Cmax, placebo adjusted / SBP change 24-hour average, placebo adjusted / SBP change at Cmax, placebo adjusted: healthy subjects
[4] = vibegron exposure in special populations (renal impairment, CYP3A/P-gp inhibitor, elderly, females)
[5] = subgroup Pre-existing hypertension: NO
[6] = subgroup Pre-existing hypertension: YES
[7] = subgroup eGFR <= 25th percentile (72 mL/min/1.73 m^2)
[8] = subgroup eGFR > 25th percentile (72 mL/min/1.73 m^2)
[9] = Over 28 Days on 3 Consecutive Visits
[10] = Over 28 Days on 3 Consecutive Visits, subgroup Body Weight <= 25th Percentile (65.4 kg)
[11] = Over 28 Days on 3 Consecutive Visits, subgroup Body Weight > 25th Percentile (65.4 kg)
[12] = Over 28 Days on 3 Consecutive Visits, subgroup eGFR <= 25th Percentile (72 mL/min/1.73 m^2)
[13] = Over 28 Days on 3 Consecutive Visits, subgroup eGFR > 25th Percentile (72 mL/min/1.73 m^2)

O=C(Nc1ccc(C[C@@H]2CC[C@H]([C@H](O)c3ccccc3)N2)cc1)[C@@H]1CCc2nccc(=O)n21 [Vibegron, (6S)-N-[4-[[(2S,5R)−5-[(R)-hydroxy(phenyl)methyl]pyrrolidin−2-yl]methyl]phenyl]−4-oxo−7,8-dihydro−6H-pyrrolo[1,2-a]pyrimidine−6-carboxamide]
In-clinic SBP change from baseline ≥15, subjects ([1]; subgroup Age > 75th percentile (66 years)): 3 (13.6) n (%) | In-clinic SBP change from baseline ≥5, subjects [1, 5]: 22 (33.3) n (%) | In-clinic SBP change from baseline ≥10, subjects [1, 5]: 14 (21.2) n (%) | In-clinic SBP change from baseline ≥15, subjects [1, 5]: 9 (13.6) n (%) | In-clinic SBP change from baseline ≥5, subjects [1, 6]: 14 (35.9) n (%) | In-clinic SBP change from baseline ≥10, subjects [1, 6]: 8 (20.5) n (%) | In-clinic SBP change from baseline ≥15, subjects [1, 6]: 4 (10.3) n (%) | In-clinic SBP change from baseline ≥5, subjects [1, 7]: 13 (43.3) n (%) | In-clinic SBP change from baseline ≥10, subjects [1, 7]: 9 (30.0) n (%) | In-clinic SBP change from baseline ≥15, subjects [1, 7]: 6 (20.0) n (%) | In-clinic SBP change from baseline ≥5, subjects [1, 8]: 23 (30.7) n (%) | In-clinic SBP change from baseline ≥10, subjects [1, 8]: 13 (17.3) n (%) | In-clinic SBP change from baseline ≥15, subjects [1, 8]: 7 (9.3) n (%) | In-clinic DBP (mmHg) change from baseline ≥5, subjects [1, 9]: 5 (5.1) n (%) | In-clinic DBP (mmHg) change from baseline ≥10, subjects [1, 9]: 3 (3.1) n (%) | In-clinic DBP (mmHg) change from baseline ≥15, subjects [1, 9]: 0 n (%) | In-clinic HR (bpm) change from baseline ≥5, subjects [1, 9]: 6 (6.1) n (%) | In-clinic HR (bpm) change from baseline ≥10, subjects [1, 9]: 3 (3.1) n (%) | In-clinic HR (bpm) change from baseline ≥15, subjects [1, 9]: 0 n (%) | In-clinic SBP (mmHg) change from baseline ≥5, subjects [1, 9]: 14 (14.3) n (%) | In-clinic SBP (mmHg) change from baseline ≥10, subjects [1, 9]: 6 (6.1) n (%) | In-clinic SBP (mmHg) change from baseline ≥15, subjects [1, 9]: 0 n (%) | In-clinic vital signs change from baseline ≥5, subjects [1, 10]: 6 (23.1) n (%) | In-clinic vital signs change from baseline ≥10, subjects [1, 10]: 2 (7.7) n (%) | In-clinic vital signs change from baseline ≥15, subjects [1, 10]: 0 n (%) | In-clinic vital signs change from baseline ≥5, subjects [1, 11]: 8 (11.1) n (%) | In-clinic vital signs change from baseline ≥10, subjects [1, 11]: 4 (5.6) n (%) | In-clinic vital signs change from baseline ≥15, subjects [1, 11]: 0 n (%) | In-clinic vital signs change from baseline ≥5, subjects [1, 12]: 3 (10.7) n (%) | In-clinic vital signs change from baseline ≥10, subjects [1, 12]: 1 (3.6) n (%) | In-clinic vital signs change from baseline ≥15, subjects [1, 12]: 0 n (%) | In-clinic vital signs change from baseline ≥5, subjects [1, 13]: 11 (15.7) n (%) | In-clinic vital signs change from baseline ≥10, subjects [1, 13]: 5 (7.1) n (%) | In-clinic vital signs change from baseline ≥15, subjects [1, 13]: 0 n (%) | Discontinued the study: Adverse Event, subjects n ([2]; Randomized N = 106): 2 | AECIs ([2]; Safety N = 106): 8 (7.5) n (%) | AEs Leading to Treatment Discontinuation ([2]; Safety N = 106): 3 (2.8) n (%) | Adverse event: Blood pressure increased ([2]; Safety N = 106): 0 n (%) | Adverse event: Constipation ([2]; Safety N = 106): 2 (1.9) n (%) | Adverse event: Diarrhea ([2]; Safety N = 106): 3 (2.8) n (%) | Adverse event: Dry mouth ([2]; Safety N = 106): 3 (2.8) n (%) | Adverse event: Fatigue ([2]; Safety N = 106): 3 (2.8) n (%) | Adverse event: Haematuria ([2]; Safety N = 106): 3 (2.8) n (%) | Adverse event: Headache ([2]; Safety N = 106): 4 (3.8) n (%) | Adverse event: Hypertension ([2]; Safety N = 106): 5 (4.7) n (%) | Adverse event: Hypotension ([2]; Safety N = 106): 1 (0.9) n (%) | Adverse event: Increased residual urine ([2]; Safety N = 106): 0 n (%) | Adverse event: Nasopharyngitis ([2]; Safety N = 106): 3 (2.8) n (%) | Adverse event: Nausea ([2]; Safety N = 106): 3 (2.8) n (%) | Adverse event: Tachycardia ([2]; Safety N = 106): 0 n (%) | Adverse event: Upper respiratory tract infection ([2]; Safety N = 106): 5 (4.7) n (%) | Adverse event: Urinary retention ([2]; Safety N = 106): 1 (0.9) n (%) | Adverse event: Urinary tract infection ([2]; Safety N = 106): 3 (2.8) n (%) | Fatal adverse event ([2]; Safety N = 106): 0 n (%) | Serious adverse event (SAE) ([2]; Safety N = 106): 1 (0.9) n (%) | Treatment emergent Adverse event (AE) ([2]; Safety N = 106): 49 (46.2) n (%) | Treatment-related AECIs ([2]; Safety N = 106): 3 (2.8) n (%) | Treatment-related SAE by the investigator ([2]; Safety N = 106): 0 n (%) | SBP change 24-hour average, 75 mg estimate, placebo adjusted ([3]; 75 mg estimate from QT study): 24-hour average: 0.1 mmHg | SBP change at Cmax, 75 mg estimate, placebo adjusted ([3]; 75 mg estimate from QT study): At Cmax: 0.4 mmHg | HR change at Cmax, placebo adjusted ([3]; 200 mg single-dose): 4.1 BPM | SBP change 24-hour average, placebo adjusted ([3]; 200 mg single-dose): +0.7 mmHg | SBP change at Cmax, placebo adjusted ([3]; 200 mg single-dose): +2.2 mmHg | HR change at Cmax, placebo adjusted ([3]; 400 mg single-dose): 11.2 BPM | SBP change 24-hour average, placebo adjusted ([3]; 400 mg single-dose): 1.3 mmHg | SBP change at Cmax, placebo adjusted ([3]; 400 mg single-dose): +3.97 mmHg | higher Cmax in elderly and females than healthy young males ([4]; elderly and females): 50-70% | mean increase in AUC in subjects with moderate renal impairment vs normal renal function ([4]; moderate renal impairment): 1.6 fold
